Test results from US9789111B2, “Casein kinase 1δ (CK 1δ) inhibitors” (Electrophoretics Limited, priority 2010, dated 2017).

Experiments:
[1] = biological target: ALK4/ACVR1B (Homo sapiens, UniProt P36896); assay: kinase inhibition assay panel; assay type: biochemical
Protocol: (§1) Base Reaction buffer; 20 mM Hepes (pH 7.5), 10 mM MgCl2, 1 mM EGTA, 0.02% Brij35, 0.02 mg/ml BSA, 0.1 mM Na3VO4, 2 mM DTT, 1% DMSO
(§2) It should be noted that required cofactors are added individually to each kinase reaction.
(§3) • 1. Prepare indicated substrate in freshly prepared Base Reaction Buffer as described above • 2. Deliver any required cofactors to the substrate solution • 3. Deliver indicated kinase into the substrate solution and gently mix • 4. Deliver compounds in DMSO into the kinase reaction mixture • 5. Deliver ^33P-ATP (specific activity 0.01 μCi/μl final) into the reaction mixture to initiate the reaction • 6. Incubate kinase reaction for 120 min. at room temperature • 7. Reactions are spotted onto P81 ion exchange paper (Whatman #3698-915) • 8. Wash filters extensively in 0.75% Phosphoric acid Kinase Information: • CK1δ—Genbank Accession # NP_620693 • Recombinant human full-length construct. GST-tagged, expressed in insect cells. • Final concentration in assay=4 nM • Substrate: CK1tide • Substrate sequence: [KRRRAL[pS]VASLPGL] • Final substrate concentration in assay=20 μM • It should be noted that no additional cofactors are added to the reaction mixture.

[2] = biological target: EPHA2 (Homo sapiens, UniProt P29317); assay: kinase inhibition assay panel; assay type: biochemical
Sequence of EPHA2 (P29317 24-976, species assumed): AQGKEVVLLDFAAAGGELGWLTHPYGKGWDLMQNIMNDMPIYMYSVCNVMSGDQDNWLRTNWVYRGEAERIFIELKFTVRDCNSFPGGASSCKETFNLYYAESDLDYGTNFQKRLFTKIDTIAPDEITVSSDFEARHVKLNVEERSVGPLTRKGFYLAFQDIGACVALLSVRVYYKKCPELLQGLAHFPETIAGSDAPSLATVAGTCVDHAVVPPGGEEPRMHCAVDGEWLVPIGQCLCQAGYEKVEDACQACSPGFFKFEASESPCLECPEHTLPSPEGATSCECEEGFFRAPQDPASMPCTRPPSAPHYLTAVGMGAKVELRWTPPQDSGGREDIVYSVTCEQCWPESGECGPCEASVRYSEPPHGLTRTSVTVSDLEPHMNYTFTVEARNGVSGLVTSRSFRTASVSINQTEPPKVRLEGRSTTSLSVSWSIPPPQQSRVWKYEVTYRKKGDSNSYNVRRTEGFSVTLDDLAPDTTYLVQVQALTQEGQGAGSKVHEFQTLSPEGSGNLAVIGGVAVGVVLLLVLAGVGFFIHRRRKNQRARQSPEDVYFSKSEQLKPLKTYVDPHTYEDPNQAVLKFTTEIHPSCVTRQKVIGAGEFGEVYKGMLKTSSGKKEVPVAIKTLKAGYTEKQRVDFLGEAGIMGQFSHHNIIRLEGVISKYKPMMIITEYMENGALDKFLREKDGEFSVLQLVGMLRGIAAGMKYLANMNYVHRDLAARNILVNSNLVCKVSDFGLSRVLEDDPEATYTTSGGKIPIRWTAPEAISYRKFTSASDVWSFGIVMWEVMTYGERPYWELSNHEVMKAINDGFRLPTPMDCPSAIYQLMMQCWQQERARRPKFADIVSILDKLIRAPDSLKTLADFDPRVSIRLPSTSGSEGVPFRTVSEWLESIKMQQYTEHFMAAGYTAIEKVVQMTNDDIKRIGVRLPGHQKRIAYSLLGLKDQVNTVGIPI
Protocol: as §1, §2, §3

[3] = biological target: PKA (Homo sapiens, UniProt P17612); assay: kinase inhibition assay panel; assay type: biochemical
Protocol: as §1, §2, §3

[4] = biological target: RIPK2 (Homo sapiens, UniProt O43353); assay: kinase inhibition assay panel; assay type: biochemical
Sequence of RIPK2 (O43353 whole entry, species assumed): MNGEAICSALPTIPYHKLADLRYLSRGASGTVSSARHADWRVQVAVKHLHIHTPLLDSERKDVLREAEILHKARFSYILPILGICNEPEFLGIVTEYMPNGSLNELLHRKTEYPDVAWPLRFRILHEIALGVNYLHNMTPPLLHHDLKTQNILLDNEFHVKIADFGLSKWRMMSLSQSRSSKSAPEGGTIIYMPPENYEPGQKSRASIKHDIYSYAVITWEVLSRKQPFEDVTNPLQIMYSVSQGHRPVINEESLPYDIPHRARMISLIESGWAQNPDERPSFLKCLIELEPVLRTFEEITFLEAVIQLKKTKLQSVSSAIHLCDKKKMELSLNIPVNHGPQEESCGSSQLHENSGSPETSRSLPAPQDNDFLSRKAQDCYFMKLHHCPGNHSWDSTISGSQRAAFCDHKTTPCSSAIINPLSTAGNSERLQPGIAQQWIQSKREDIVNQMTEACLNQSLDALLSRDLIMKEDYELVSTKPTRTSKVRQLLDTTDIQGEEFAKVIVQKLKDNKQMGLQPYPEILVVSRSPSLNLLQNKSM
Protocol: as §1, §2, §3

[5] = biological target: YES/YES1 (Homo sapiens, UniProt P07947); assay: kinase inhibition assay panel; assay type: biochemical
Sequence of YES/YES1 (P07947 whole entry): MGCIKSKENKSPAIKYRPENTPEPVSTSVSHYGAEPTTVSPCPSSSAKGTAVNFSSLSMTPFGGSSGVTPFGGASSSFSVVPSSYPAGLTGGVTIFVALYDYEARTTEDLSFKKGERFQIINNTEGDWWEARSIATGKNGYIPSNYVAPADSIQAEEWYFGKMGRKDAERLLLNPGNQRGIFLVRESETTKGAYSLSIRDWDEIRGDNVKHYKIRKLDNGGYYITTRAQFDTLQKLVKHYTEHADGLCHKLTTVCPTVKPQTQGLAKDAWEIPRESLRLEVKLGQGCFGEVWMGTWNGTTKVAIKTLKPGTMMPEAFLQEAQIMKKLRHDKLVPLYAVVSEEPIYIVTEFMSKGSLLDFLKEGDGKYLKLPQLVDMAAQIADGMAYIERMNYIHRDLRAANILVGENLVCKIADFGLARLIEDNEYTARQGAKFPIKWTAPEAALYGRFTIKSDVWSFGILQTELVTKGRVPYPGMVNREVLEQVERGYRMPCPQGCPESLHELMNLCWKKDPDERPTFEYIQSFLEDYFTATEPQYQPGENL
Protocol: as §1, §2, §3

[6] = biological target: ALK5/TGFBR1 (Homo sapiens, UniProt P36897); assay: kinase inhibition assay panel; assay type: biochemical
Sequence of ALK5/TGFBR1 (P36897 34-503): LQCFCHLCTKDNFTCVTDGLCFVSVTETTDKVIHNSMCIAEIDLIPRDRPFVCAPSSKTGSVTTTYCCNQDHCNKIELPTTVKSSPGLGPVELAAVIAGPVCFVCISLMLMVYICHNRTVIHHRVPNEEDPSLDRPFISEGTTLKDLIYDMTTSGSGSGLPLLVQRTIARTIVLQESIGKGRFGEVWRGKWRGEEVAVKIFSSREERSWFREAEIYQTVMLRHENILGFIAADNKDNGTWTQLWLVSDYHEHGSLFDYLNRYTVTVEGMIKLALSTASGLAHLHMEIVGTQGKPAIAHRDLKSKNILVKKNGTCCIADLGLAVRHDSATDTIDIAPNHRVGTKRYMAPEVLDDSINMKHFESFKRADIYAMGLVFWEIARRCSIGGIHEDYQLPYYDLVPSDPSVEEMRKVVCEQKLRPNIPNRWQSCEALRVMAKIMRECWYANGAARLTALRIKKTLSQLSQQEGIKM

[7] = biological target: CK1a1 (Homo sapiens, UniProt P48729); assay: kinase inhibition assay panel; assay type: biochemical
Sequence of CK1a1 (P48729 whole entry): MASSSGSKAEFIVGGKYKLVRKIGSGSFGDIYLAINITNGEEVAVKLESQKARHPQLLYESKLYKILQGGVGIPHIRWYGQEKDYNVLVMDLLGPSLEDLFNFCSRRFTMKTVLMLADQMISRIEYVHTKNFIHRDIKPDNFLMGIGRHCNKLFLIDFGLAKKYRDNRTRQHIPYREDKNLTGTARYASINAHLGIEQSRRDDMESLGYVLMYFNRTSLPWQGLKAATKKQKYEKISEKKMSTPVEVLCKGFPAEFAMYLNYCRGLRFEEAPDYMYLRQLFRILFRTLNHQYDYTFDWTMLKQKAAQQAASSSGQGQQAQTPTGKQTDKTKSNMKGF

[8] = biological target: EGFR (Homo sapiens, UniProt P00533); assay: kinase inhibition assay panel; assay type: biochemical
Sequence of EGFR (P00533 25-1210, species assumed): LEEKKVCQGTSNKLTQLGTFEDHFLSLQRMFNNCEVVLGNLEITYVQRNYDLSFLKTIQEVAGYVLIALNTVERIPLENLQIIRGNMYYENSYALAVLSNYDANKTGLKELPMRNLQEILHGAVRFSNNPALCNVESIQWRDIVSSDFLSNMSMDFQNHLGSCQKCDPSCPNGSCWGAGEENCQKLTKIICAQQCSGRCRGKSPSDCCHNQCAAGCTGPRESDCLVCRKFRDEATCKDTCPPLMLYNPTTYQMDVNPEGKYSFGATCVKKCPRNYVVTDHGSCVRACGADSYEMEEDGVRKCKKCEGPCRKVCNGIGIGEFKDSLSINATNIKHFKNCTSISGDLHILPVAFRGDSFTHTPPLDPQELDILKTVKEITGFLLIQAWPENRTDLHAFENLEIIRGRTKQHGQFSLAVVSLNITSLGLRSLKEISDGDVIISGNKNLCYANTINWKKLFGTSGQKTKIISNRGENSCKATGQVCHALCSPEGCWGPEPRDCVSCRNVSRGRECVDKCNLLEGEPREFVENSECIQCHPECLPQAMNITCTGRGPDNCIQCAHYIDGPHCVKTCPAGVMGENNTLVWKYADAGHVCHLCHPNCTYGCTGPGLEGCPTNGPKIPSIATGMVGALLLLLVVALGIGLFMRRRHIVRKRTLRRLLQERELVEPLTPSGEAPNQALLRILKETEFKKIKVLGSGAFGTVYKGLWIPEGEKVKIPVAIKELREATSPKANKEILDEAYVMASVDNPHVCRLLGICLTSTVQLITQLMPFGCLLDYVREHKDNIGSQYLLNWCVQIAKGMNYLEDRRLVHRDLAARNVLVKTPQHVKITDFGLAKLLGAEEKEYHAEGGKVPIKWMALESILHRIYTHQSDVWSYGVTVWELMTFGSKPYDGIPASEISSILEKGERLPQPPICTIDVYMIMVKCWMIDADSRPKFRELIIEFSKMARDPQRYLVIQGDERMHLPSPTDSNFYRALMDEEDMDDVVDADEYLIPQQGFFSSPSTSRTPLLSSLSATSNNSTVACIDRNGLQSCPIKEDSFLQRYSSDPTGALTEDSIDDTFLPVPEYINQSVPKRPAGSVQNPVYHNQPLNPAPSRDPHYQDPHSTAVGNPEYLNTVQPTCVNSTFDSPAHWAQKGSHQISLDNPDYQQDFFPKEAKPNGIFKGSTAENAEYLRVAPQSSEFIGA

[9] = test system: SH-SY5Y-TMHT cells; assay: Cell viability, MTT assay; assay type: cell-based, human; conditions: 6 h of treatment
Protocol: (§4) SH-SY5Y-TMHT cells are kept in culture medium (DMEM medium, 10% FCS, 1% NEAA, 1% L-Glutamine, 100 μg/ml Gentamycin, 300 μg/ml Geneticin G-418) for 2 days until 80-90% confluency. Cells are then differentiated in culture medium supplemented with 10 μM retinoic acid (RA) for 7 days changing medium every 2 to 3 days. Differentiated cells are seeded onto 6-well plates and 96-well plates at a cell density of 1.25×10^6 and 8×10^5 cells per well, respectively. On day 8 post-differentiation, the test compounds, reference compounds and vehicle control were added to the culture medium. After 6 h of compound exposure one plate of cells is subjected to a MTT assay to evaluate the effect of test and reference items on cell viability. Remaining wells are washed once with cold PBS and harvested in 300 μl RIPA-Buffer [50 mM Tris pH 7.4, 1% Nonident P40, 0.25% Na-deoxy-cholate, 150 mM NaCl, 1 mM EDTA, 1 μM NaF, 1 μM Na-ortho-vanadate, 80 mM Glycerophosphate, supplemented with freshly added protease (Calbiochem) and phosphatase (Sigma) inhibitor cocktail]. The cell suspension is transferred into a 1.5 ml tube and additionally lysed by sonication on ice. An aliquot of 20 μl is taken for the determination of the protein concentration (BCA assay). Subsequently, the lysates are snap frozen and stored at −80° C. until shipment.
To determine compound activity, it is necessary to control for potential cell toxicity of all molecules. Viability of cultures is determined by the MTT assay. This assay allows the measurement of the mitochondrial dehydrogenase activity which reduces yellow MTT to dark blue formazan crystals. Since this reaction is catalyzed in living cells only this assay is used for the determination of cell viability. MTT solution is added to each well in a final concentration of 0.5 mg/ml. After 2 hours, the MTT containing medium is aspired. Cells are lysed in 3% SDS and the formazan crystals are dissolved in isopropanol/HCl. Optical density is measured with a plate-reader at wavelength 570 nm. Cell survival rate is expressed as optical density (OD). Values are calculated as percent of control values.
Cell viability was determined in differentiated SH-SY5Y-TMHT cells by the MTT assay. Test and reference compounds were applied in a concentration range from 0.05 μM to 10 μM and from 0.1 μM to 1 μM, respectively. Upon 6 h of treatment, cell viability was evaluated. […] Statistical significance is indicated by *<0.05, **<0.01, ***<0.001 as determined by One-Way ANOVA. Data are shown from two independent experiments as group mean+/−SEM (n=8). […] Statistical significance is indicated by *<0.05, **<0.01, ***<0.001 as determined by One-Way ANOVA. […] Statistical significance is indicated by *<0.05, **<0.01, ***<0.001 as determined by One-Way ANOVA. […]

[10] = test system: Tau phosphorylated at Threonine 231 in SH-SY5Y-TMHT cells; assay: Western Blot of Tau phosphorylated at Threonine 231; assay type: cell-based, human; conditions: for detectable level of pT231 in Tau protein: 10 μM, Western Blot; for phosphorylation of Thr 231 within Tau proteins: FIG. 5
Protocol: as §4
(§5) Lysates of treated cells were prepared in Laemmli buffer and 10 μg loaded into each lane of a 10% Nu-PAGE gel (Invitrogen, UK). Samples were run until the coomassie blue dye fromt was within 1 cm of the bottom of the gel. The separated proteins were transferred onto nitrocellulose and blots developed using antibodies specific for total tau (Polyclonal Rabbit Anti-Human Tau, Dako, UK (cat # A0024)) and phopho-Threonine 231 (Tau (Phospho-Thr231) Antibody, Signalway Antibody, USA (cat # 11110)) respectively. In each case the bound antibody was detected using ECL Rabbit IgG, HRP-Linked (from donkey) (GE Healthcare, UK (cat # NA934))

[11] = test system: total Tau in SH-SY5Y-TMHT cells; assay: Western Blot of total Tau; assay type: cell-based, human; conditions: 10 μM
Protocol: as §4, §5

[12] = biological target: CK1g2 (Homo sapiens, UniProt P78368); assay: kinase inhibition assay panel; assay type: biochemical
Sequence of CK1g2 (P78368 whole entry, species assumed): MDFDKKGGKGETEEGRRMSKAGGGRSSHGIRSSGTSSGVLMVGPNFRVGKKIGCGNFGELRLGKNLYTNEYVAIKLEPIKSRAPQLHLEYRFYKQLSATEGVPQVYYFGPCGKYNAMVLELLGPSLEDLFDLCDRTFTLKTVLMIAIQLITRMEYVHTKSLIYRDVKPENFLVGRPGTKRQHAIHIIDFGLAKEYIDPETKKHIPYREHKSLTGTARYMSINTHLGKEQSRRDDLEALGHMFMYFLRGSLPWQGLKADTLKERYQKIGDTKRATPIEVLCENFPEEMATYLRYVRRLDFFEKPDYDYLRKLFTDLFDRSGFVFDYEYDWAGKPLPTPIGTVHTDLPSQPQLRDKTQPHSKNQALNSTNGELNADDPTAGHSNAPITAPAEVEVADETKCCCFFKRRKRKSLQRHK

Sequence of ALK4/ACVR1B (P36896 24-505): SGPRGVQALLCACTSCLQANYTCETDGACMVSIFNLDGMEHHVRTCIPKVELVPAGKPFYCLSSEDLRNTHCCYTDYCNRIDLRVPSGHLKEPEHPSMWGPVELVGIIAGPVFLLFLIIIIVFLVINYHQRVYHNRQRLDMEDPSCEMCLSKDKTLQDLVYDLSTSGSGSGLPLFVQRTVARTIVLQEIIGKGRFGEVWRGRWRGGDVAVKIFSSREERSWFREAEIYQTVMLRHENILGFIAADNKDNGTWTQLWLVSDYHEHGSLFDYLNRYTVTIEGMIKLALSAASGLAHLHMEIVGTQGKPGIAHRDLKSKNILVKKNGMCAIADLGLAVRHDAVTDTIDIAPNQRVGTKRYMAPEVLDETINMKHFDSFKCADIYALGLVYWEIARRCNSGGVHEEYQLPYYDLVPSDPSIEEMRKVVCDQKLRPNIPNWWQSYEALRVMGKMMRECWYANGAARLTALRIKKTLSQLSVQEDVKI

| inhibition of ALK4/ACVR1B [1] | inhibition of EPHA2 [2] | inhibition of PKA [3] | inhibition of RIPK2 [4] | inhibition of YES/YES1 [5] | inhibition of ALK5/TGFBR1 [6] | inhibition of CK1a1 [7] | inhibition of EGFR [8] | inhibition of CK1g2 [12] | Compound | effect on the cell viability of SH-SY5Y-TMHT cells ([9]; 0.05 μM to 10 μM, vs vehicle control) | protective effect on cell viability, statistical significance ([9]; 10 μM, One-Way ANOVA) | detectable level of pT231 in Tau protein [10] | phosphorylation of Thr 231 within Tau proteins [10] | detectable levels of total Tau [11] | effect on the cell viability of SH-SY5Y-TMHT cells ([9]; 1 and 0.5 μM) |
| --- | --- | --- | --- | --- | --- | --- | --- | --- | --- | --- | --- | --- | --- | --- | --- |
| lower than 40% | lower than 40% | lower than 40% | lower than 40% | lower than 40% | lower than 40% | lower than 40% | lower than 40% | – | Nc1ncc(-c2nc3ccccc3o2)c(-c2ccncc2)n1 [Compound 324, 5-(1,3-benzoxazol-2-yl)-4-(pyridin-4-yl)pyrimidin-2-amine] | protective effect on the cell viability of SH-SY5Y-TMHT cells in a dose dependent manner | statistically significant | reduced the detectable level of pT231 | inhibit phosphorylation | no significant difference | – |
| – | – | – | – | – | – | – | – | lower than 40% | NC(=O)c1c(N)c(C(=O)c2ccc(F)cc2)n2ccccc12 [Compound 987, 2-amino-3-[(4-fluorophenyl)carbonyl]indolizine-1-carboxamide] | – | – | reduced the detectable level of pT231 | inhibit phosphorylation | no significant difference | no cytotoxic effect |
